Measured values reported in ChEMBL document CHEMBL3885881, “DrugMatrix”.

Species: Rattus norvegicus
Experiment: DrugMatrix - Regimen: Daily Repeat
Format: toxicity, organism-based, Sprague-Dawley
Parameters: regimen Daily Repeat, gender Male, age 6-8 weeks
Conditions: in vivo, po, route oral GAVAGE, vehicle 100 % WATER; for ABSOLUTE BASOPHIL / ABSOLUTE EOSINOPHIL / ABSOLUTE LYMPHOCYTE / ABSOLUTE MONOCYTE / ABSOLUTE SEGMENTED NEUTROPHIL / BASOPHIL / EOSINOPHIL / ERYTHROCYTE COUNT / HEMATOCRIT / HEMOGLOBIN / LEUKOCYTE COUNT / LYMPHOCYTE / MEAN CORPUSCULAR HEMOGLOBIN / MEAN CORPUSCULAR HEMOGLOBIN CONCENTRATION / MEAN CORPUSCULAR VOLUME / MONOCYTE / NEUTROPHIL / NUCLEATED RED BLOOD CELLS / PLATELET COUNT: tissue Blood; for ALANINE AMINOTRANSFERASE / ALBUMIN / ALKALINE PHOSPHATASE / ASPARTATE AMINOTRANSFERASE / BLOOD UREA NITROGEN / CARBON DIOXIDE / CHLORIDE / CHOLESTEROL / CREATINE PHOSPHOKINASE / CREATININE / GLUCOSE / LACTATE DEHYDROGENASE / LIPASE / PHOSPHORUS / POTASSIUM / SODIUM / TOTAL BILIRUBIN / TOTAL PROTEIN / URIC ACID: tissue Plasma
[1] = 0 mg/kg, 72 h, dose level Control, time 3 day
[2] = 0 mg/kg, 120 h, dose level Control, time 5 day
[3] = 8 mg/kg, 72 h, dose level Low, time 3 day

SMILES: CCN(C(C)=O)c1cccc(-c2ccnc3c(C#N)cnn23)c1 [ZALEPLON]
- ABSOLUTE BASOPHIL [1]: 0 CELLS/uL
- ABSOLUTE EOSINOPHIL [1]: 58.83 CELLS/uL
- ABSOLUTE LYMPHOCYTE [1]: 11823.5 CELLS/uL
- ABSOLUTE MONOCYTE [1]: 169 CELLS/uL
- ABSOLUTE SEGMENTED NEUTROPHIL [1]: 815.33 CELLS/uL
- BASOPHIL [1]: 0%
- EOSINOPHIL [1]: 0.5%
- ERYTHROCYTE COUNT [1]: 5.52 x10E6/uL
- HEMATOCRIT [1]: 35.77%
- HEMOGLOBIN [1]: 14.28 G/DL
- LEUKOCYTE COUNT [1]: 12.87 x10E3/uL
- LYMPHOCYTE [1]: 91.67%
- MEAN CORPUSCULAR HEMOGLOBIN [1]: 25.92 pg
- MEAN CORPUSCULAR HEMOGLOBIN CONCENTRATION [1]: 39.95 G/DL
- MEAN CORPUSCULAR VOLUME [1]: 64.85 fL
- MONOCYTE [1]: 1.33%
- NEUTROPHIL [1]: 6.5%
- NUCLEATED RED BLOOD CELLS [1]: 0 /100WBC
- PLATELET COUNT [1]: 1246.17 x10E3/uL
- ALANINE AMINOTRANSFERASE [1]: 66 u/L
- ALBUMIN [1]: 4.25 G/DL
- ALKALINE PHOSPHATASE [1]: 416 u/L
- ASPARTATE AMINOTRANSFERASE [1]: 106.17 u/L
- BLOOD UREA NITROGEN [1]: 12.67 mg/dL
- CARBON DIOXIDE [1]: 31.83 mmol/L
- CHLORIDE [1]: 102.5 MEQ/L
- CHOLESTEROL [1]: 69 mg/dL
- CREATINE PHOSPHOKINASE [1]: 601.83 u/L
- CREATININE [1]: 0.18 mg/dL
- GLUCOSE [1]: 154.5 mg/dL
- LACTATE DEHYDROGENASE [1]: 301.83 u/L
- LIPASE [1]: 11.17 u/L
- PHOSPHORUS [1]: 12.08 mg/dL
- POTASSIUM [1]: 6.12 MEQ/L
- SODIUM [1]: 145.2 MEQ/L
- TOTAL BILIRUBIN [1]: 0.17 mg/dL
- TOTAL PROTEIN [1]: 6.1 G/DL
- URIC ACID [1]: 1.57 mg/dL
- ABSOLUTE BASOPHIL [2]: 0 CELLS/uL
- ABSOLUTE EOSINOPHIL [2]: 19.33 CELLS/uL
- ABSOLUTE LYMPHOCYTE [2]: 12577.83 CELLS/uL
- ABSOLUTE MONOCYTE [2]: 106.33 CELLS/uL
- ABSOLUTE SEGMENTED NEUTROPHIL [2]: 896.5 CELLS/uL
- BASOPHIL [2]: 0%
- EOSINOPHIL [2]: 0.17%
- ERYTHROCYTE COUNT [2]: 5.84 x10E6/uL
- HEMATOCRIT [2]: 36.88%
- HEMOGLOBIN [2]: 14.48 G/DL
- LEUKOCYTE COUNT [2]: 13.6 x10E3/uL
- LYMPHOCYTE [2]: 92.17%
- MEAN CORPUSCULAR HEMOGLOBIN [2]: 24.85 pg
- MEAN CORPUSCULAR HEMOGLOBIN CONCENTRATION [2]: 39.3 G/DL
- MEAN CORPUSCULAR VOLUME [2]: 63.23 fL
- MONOCYTE [2]: 0.83%
- NEUTROPHIL [2]: 6.83%
- NUCLEATED RED BLOOD CELLS [2]: 0 /100WBC
- PLATELET COUNT [2]: 1223.5 x10E3/uL
- ALANINE AMINOTRANSFERASE [2]: 55.33 u/L
- ALBUMIN [2]: 4.08 G/DL
- ALKALINE PHOSPHATASE [2]: 355.5 u/L
- ASPARTATE AMINOTRANSFERASE [2]: 87.67 u/L
- BLOOD UREA NITROGEN [2]: 15.33 mg/dL
- CARBON DIOXIDE [2]: 33.83 mmol/L
- CHLORIDE [2]: 99.67 MEQ/L
- CHOLESTEROL [2]: 72.17 mg/dL
- CREATINE PHOSPHOKINASE [2]: 268.33 u/L
- CREATININE [2]: 0.15 mg/dL
- GLUCOSE [2]: 152.5 mg/dL
- LACTATE DEHYDROGENASE [2]: 212.67 u/L
- LIPASE [2]: 10.83 u/L
- PHOSPHORUS [2]: 11.65 mg/dL
- POTASSIUM [2]: 6.73 MEQ/L
- SODIUM [2]: 142.43 MEQ/L
- TOTAL BILIRUBIN [2]: 0.23 mg/dL
- TOTAL PROTEIN [2]: 6.07 G/DL
- URIC ACID [2]: 1.7 mg/dL
- ABSOLUTE BASOPHIL [3]: 0 CELLS/uL
- ABSOLUTE EOSINOPHIL [3]: 0 CELLS/uL
- ABSOLUTE LYMPHOCYTE [3]: 15455.33 CELLS/uL
- ABSOLUTE MONOCYTE [3]: 295 CELLS/uL
- ABSOLUTE SEGMENTED NEUTROPHIL [3]: 1116.33 CELLS/uL
- BASOPHIL [3]: 0%
- EOSINOPHIL [3]: 0%
- ERYTHROCYTE COUNT [3]: 5.86 x10E6/uL
- HEMATOCRIT [3]: 37.3%
- HEMOGLOBIN [3]: 14.83 G/DL
- LEUKOCYTE COUNT [3]: 16.87 x10E3/uL
- LYMPHOCYTE [3]: 91.67%
- MEAN CORPUSCULAR HEMOGLOBIN [3]: 25.33 pg
- MEAN CORPUSCULAR HEMOGLOBIN CONCENTRATION [3]: 39.77 G/DL
- MEAN CORPUSCULAR VOLUME [3]: 63.67 fL
- MONOCYTE [3]: 1.67%
- NEUTROPHIL [3]: 6.67%
- NUCLEATED RED BLOOD CELLS [3]: 0 /100WBC
- PLATELET COUNT [3]: 1367.67 x10E3/uL
- ALANINE AMINOTRANSFERASE [3]: 54.67 u/L
- ALBUMIN [3]: 4.17 G/DL
- ALKALINE PHOSPHATASE [3]: 303 u/L
- ASPARTATE AMINOTRANSFERASE [3]: 88.33 u/L
- BLOOD UREA NITROGEN [3]: 12 mg/dL
- CARBON DIOXIDE [3]: 32.67 mmol/L
- CHLORIDE [3]: 101.67 MEQ/L
- CHOLESTEROL [3]: 70.67 mg/dL
- CREATINE PHOSPHOKINASE [3]: 534 u/L
- CREATININE [3]: 0.2 mg/dL
- GLUCOSE [3]: 151 mg/dL
- LACTATE DEHYDROGENASE [3]: 218 u/L
- LIPASE [3]: 13.67 u/L
- PHOSPHORUS [3]: 12.87 mg/dL
- POTASSIUM [3]: 6.77 MEQ/L
- SODIUM [3]: 145.17 MEQ/L
- TOTAL BILIRUBIN [3]: 0.17 mg/dL
- TOTAL PROTEIN [3]: 5.9 G/DL
- URIC ACID [3]: 1.7 mg/dL
